Source: PMC9887672, “Predicting human cardiac QT alterations and pro-arrhythmic effects of compounds with a 3D beating heart-on-chip platform” (Toxicological Sciences, 2022)
Entries after “also recorded” stand apart in the source; their conditions may differ. Read-outs that look alike come from different tables or passages of the source.

Experiments:
[1] = system: uHeart 3D cardiac microtissues (h-iPSC-CMs and dermal fibroblasts in fibrin); experiment: Drug screening on uHeart: field potential recording (FPDcF, BP, AMP, arrhythmic events, beating cessation); details: for Arrhythmic events: detected (Y) or not (N) in uHeart; for Effect on beating period BP (in words) / Effect on spike amplitude AMP (in words) / Effect on FPDcF (in words): incremental doses; for Effect on FPDcF (in words): change vs baseline; for TdP risk category proposed from uHeart score: score vs ratio effective concentration/fETPC, Figure 6D; for [%FPDcF] >LOW, drug concentration: concentration causing FPDcF change by 10% vs baseline; for FPDcF alteration, direction, at [%FPDcF]>HIGH: threshold HIGH = 20% change vs baseline; for FPDcF alteration, direction, at [%FPDcF] >MID: threshold MID = 15% change vs baseline; for Arrhythmic events, lowest detected concentration: value in brackets in Table 2; for Concentration at which the described FPDcF change was seen: aspirine: increment just above LOW threshold, alfuzosin: slight shortening
Method: Human adult dermal fibroblasts were provided by Lonza Group Ltd. H-iPSC-CMs were thawed according to standard protocols and immediately used. Fibroblasts were expanded at confluency in DMEM (Gibco, 4.5 g l^−1 glucose) supplemented with 10% v/v FBS, 100 U ml^−1 penicillin, 100 μg ml^−1 streptomycin, and 10 mmol HEPES and used at passage 10–11. […] Subsequently, 2 μl of cell solution was inoculated into the central channel of each chamber of the uBeat Platform (provided by BiomimX Srl). The hydrogel was cross-linked in the incubator at 37°C for 8 min before manually adding the plating medium (FUJIFILM Cellular Dynamics Inc.) supplemented with 100 U ml^−1 penicillin, 100 μg ml^−1 streptomycin, and 2 mg ml^−1 of 6-Aminocaproic acid (ACA). […] This medium was used and changed every day for the following 6 days.
Field potential (FP) measurements (Figure 1B) were performed after 6 or 7 days of culture, when the model expresses a strong spontaneous and synchronous beating. […] An AgCl ground electrode was inserted in one of the 4 cell culture medium reservoirs. Cell culture medium was changed at least 1 h prior to perform the measurements. To execute the tests, uHeart was maintained in the incubator at 37°C with 5% CO2 and the electrodes were connected to an extracellular amplifier (Ext-02b, Npi Electronic GmbH, Germany) with a 1 × 10^4 gain and a bandpass filter between 0.3 Hz and 10 kHz. FPs were acquired with an electronic board (Analog Discovery 2, Digilent, Washington) at a rate of 2000 samples s^−1.
The cell culture medium was exchanged with fresh serum-free RPMI medium and after 1 h the baseline FP signal was recorded for at least 3 min. Subsequently, the lowest drug dose was administered to the microtissues and incubated at 37°C for 10–20 min before recording the corresponding FP for at least 3 min. Between each incremental dose, a 5-min washing was performed with serum-free RPMI medium.
Results of BP, FPD, and AMP assessed by the algorithm were compared against manual measurement. BP and FPD were additionally analyzed by applying an initial bandwidth filter to the signal (3rd order Butterworth filter, 0.67–100 Hz, zero phase), to further verify the quality of the estimates obtained. After the validation, the algorithm was used to analyze the FP signal recorded during the pharmacological campaign. Signals not correctly recognized by the software, as verified by visual inspection on the user interface, were manually analyzed.
For compounds not evoking responses, the maximum tested concentration respect to the fETPC was used.
A quality control was established to select the signals to be considered for the evaluation of electrophysiological parameters changes in response to increasing concentrations of compounds. […] This inclusion criteria ensured that the developed cardiac microtissues spontaneously beat in a consistent way and allowed to normalize the obtained FP signals with correction methods based on the beating frequency.

[2] = cited from earlier work; for fETPC: free effective therapeutic plasma concentration, ref Nguyen et al. (2017), Yamazaki et al. (2018)
[3] = set-up: method as in Mair et al., 2022; details: long incubation, after 7 days; ref Mair et al., 2022; cited from earlier work
[4] = TdP risk category; ref Blinova et al., 2017; cited from earlier work
[5] = clinical highest blood drug concentration, ref Blinova et al. (2017), Kopljar et al. (2018), Voelker and Hammer (2012)

Structure (SMILES)	Arrhythmic events, percentage of uHearts affected [1]	Arrhythmic events ([1]; also in words)	Effect on beating period BP (in words) [1]	Effect on FPDcF (in words) [1]	TdP risk category proposed from uHeart score [1]	fETPC [2]	[%FPDcF] >LOW, drug concentration [1]	FPDcF alteration, direction, at [%FPDcF]>HIGH [1]	FPDcF alteration, direction, at [%FPDcF] >MID [1]	Cmax [2, 5]	also measured
CN(CCOc1ccc(NS(C)(=O)=O)cc1)CCc1ccc(NS(C)(=O)=O)cc1 [Dofetilide]	66%	Arrhythmic events were detected	slightly increased the BP	concentration-dependent prolongation of the FPDcF	high risk	–	–	–	–	–	Stop, percentage of uHearts [1]: 33%; uHearts that ceased beating over uHearts tested [1]: 1 over 3; Effect on spike amplitude AMP (in words) [1]: incremental decrease in the AMP; Effect on FPDcF (in words) ([1]; listed as dofetilide): prolonged the FPDcF above the defined thresholds; also recorded: dose-related FPDcF prolongation
Cc1cccc(C)c1OCC(C)N (stereo not shown) [Mexiletine]	–	–	did not show a trend in altering neither the FPDcF nor the BP; also recorded: without majorly affecting the FPDcF or the BP	–	low-risk	2.5 µM	50 µM	↔ [drawing 21]	↔ [drawing 20]	–	Concentration at which AMP statistically decreased ([1]; already at medium concentration): 10000 nM; Effect on spike amplitude AMP (in words) [1]: statistically decreased in a concentration-dependent way; also recorded: dose-related statistically significant reduction of the FP amplitude
COc1ccccc1OCC(O)CN1CCN(CC(=O)Nc2c(C)cccc2C)CC1 (stereo not shown) [Ranolazine]	20%	generated arrhythmia; also recorded: caused arrhythmic beating	increase the BP	statistically enhanced the repolarization time; also recorded: prolonged the FPDcF; also recorded: dose-related FPDcF prolongation	high-risk	–	–	–	–	–	Effect on beating period BP (in words) ([1]; listed as ranolazine): rose the BP
CC(C)(C)c1ccc(C(O)CCCN2CCC(C(O)(c3ccccc3)c3ccccc3)CC2)cc1 (stereo not shown) [Terfenadine]	60%	arrhythmic events	without affecting the BP	statistically prolonged the FPDcF at high dosages; also recorded: prolongation of the FPDcF	high risk	0.00029 µM	–	–	–	0.29 nM	Reduction of compound by absorption in PDMS [3]: about 20%; fETPC in the presence of metabolic inhibition ([2]; patients, cytochrome P450 inhibitor, ref Redfern et al., 2003): about 4 nM; Cmax ([2]; read-out: Cmax or fETPC, clinical value of patients, ref Ando et al., 2017): 0.29 nM; Concentration at which FPDcF was statistically prolonged ([1]; Kruskal-Wallis with Dunn's test): 300 nM; Concentration found effective in uHeart ([1]; as quoted in Discussion): 100000 nM; Arrhythmic events, lowest detected concentration [1]: 0.001 µM
C=C[C@H]1C[N@@]2CC[C@H]1C[C@@H]2[C@@H](O)c1ccnc2ccc(OC)cc12 [Quinidine]	50%	Arrhythmic events were detected	slightly increased the BP	prolonged the FPDcF above the defined thresholds; also recorded: dose-related FPDcF prolongation	high risk	3 µM	0.06 µM	–	–	3000 nM	[%FPDcF] >MID, drug concentration ([1]; concentration causing FPDcF change by 15% vs baseline): 1 µM; [%FPDcF]>HIGH, drug concentration ([1]; concentration causing FPDcF change by 20% vs baseline): 10 µM; Arrhythmic events, lowest detected concentration [1]: 0.1 µM
CC(=O)Oc1ccccc1C(=O)O [Aspirin]	–	–	–	did not change the FPDcF	low-risk	7.1 µM	–	↔ [drawing 33]	↔ [drawing 32]	24400 nM	Concentration at which the described FPDcF change was seen [1]: 300000 nM; Effect on FPDcF (in words) ([1]; listed as aspirine): increment of the FPDcF just above the LOW threshold only at the highest concentration tested; FPDcF alteration, direction, at [%FPDcF] >LOW ([1]; threshold LOW = 10% change vs baseline): ↔ [drawing 31]
COc1cc(N)c(Cl)cc1C(=O)NC1CCN(CCCOc2ccc(F)cc2)CC1OC (stereo not shown) [Cisapride]	50%	caused arrhythmic beats	–	slightly decrease in the FPDcF; also recorded: shortened the repolarization time at all considered thresholds; also recorded: did not revealed a FPDcF prolongation	high risk	–	–	–	–	–	Risk CiPa [4]: I; Stop, percentage of uHearts [1]: 25%; uHearts that ceased beating over uHearts tested [1]: 2 over 4; Stop (spontaneous beating cessation) ([1]; Y or N, also in words): interrupted the spontaneous beating of microtissues
COc1cc2nc(N(C)CCCNC(=O)C3CCCO3)nc(N)c2cc1OC (stereo not shown) [Alfuzosin]	–	caused arrhythmic beating	–	did not showed a peculiar trend	low-risk	0.01 µM	0.3 µM	↔ [drawing 30]	↔ [drawing 29]	15 nM	Concentration at which the described FPDcF change was seen [1]: 300 nM; FPDcF prolongation ([1]; at high concentration (ie,100 µM)): ~10%; Effect on FPDcF (in words) ([1]; listed as alfuzosin): shortening
CC(C)NCC(O)c1ccc(NS(C)(=O)=O)cc1 (stereo not shown) [Sotalol]	–	did not elicit any arrhythmia; also recorded: not found to provoke arrhythmic events	slightly increased the BP; also recorded: drug dose dependent increase of the BP	prolonged the FPDcF above the defined thresholds; also recorded: dose-related FPDcF prolongation	high risk	–	–	–	–	–	–
